From ChEMBL document CHEMBL3046308, “Synthesis of phenoxyphenyl pyridine and pyrazine carboxamides. Activity against Cydia pomonella (L.) eggs” (2000) come the findings set out here.

Each structure is given as a SMILES string.

What all share (type): functional
In experiment [1] the test system is Cydia pomonella. In words: Ovicidal activity against 24 hr old Cydia pomonella (codling moth) eggs assessed as development period at 5 mg/ml sprayed at 19 +/- 1 degC.
In experiment [2] the test system is Cydia pomonella. In words: Ovicidal activity against 24 hr old Cydia pomonella (codling moth) eggs assessed as mortality at 5 mg/ml sprayed at 19 +/- 1 degC.
Experiment [3] concerns Cydia pomonella. In words: Ovicidal activity against 24 hr old Cydia pomonella (codling moth) eggs assessed as efficacy at 5 mg/ml sprayed at 19 +/- 1 degC.

On to `C=CCOC(=O)Nc1ccc(Oc2ccc(N)cc2)cc1`, for which the Time in the experiment on Cydia pomonella [1] came out at 11.3 days. Moreover, in the experiment on Cydia pomonella [2], the mortality at 5000 µg/mL was found to be 48.1%. The Efficacy with Cydia pomonella [3] is listed as 35%.

Take `C=CCOC(=O)Nc1ccc(Oc2ccc(NC(=O)c3ccccn3)cc2)cc1`: the Time in the experiment with Cydia pomonella [1] came to 11.1 days. Besides, the mortality at 5000 µg/mL with Cydia pomonella [2] was 40.7%. Also, the Efficacy in the experiment on Cydia pomonella [3] came to 27.2%.

On to `C=CCOC(=O)Nc1ccc(Oc2ccc(NC(=O)c3cccnc3)cc2)cc1`, for which the Time in the experiment on Cydia pomonella [1] stood at 10.2 days. Also, in the experiment on Cydia pomonella [2], the mortality at 5000 µg/mL stood at 34.4%.

As to `C=CCOC(=O)Nc1ccc(Oc2ccc(NC(=O)c3ccncc3)cc2)cc1`, the Time in the experiment on Cydia pomonella [1] was 11.7 days. In the experiment with Cydia pomonella [2], the mortality at 5000 µg/mL stood at 53.8%. In the experiment with Cydia pomonella [3], the Efficacy is 42.5%.

Turning to `C=CCOC(=O)Nc1ccc(Oc2ccc(NC(=O)c3cnccn3)cc2)cc1`, the Time with Cydia pomonella [1] worked out at 9.5 days. Also, the mortality at 5000 µg/mL in the experiment with Cydia pomonella [2] is 25.3%.

For the compound `O=C(Nc1ccc(Oc2ccccc2)cc1)c1ccncc1`, the Time in the experiment on Cydia pomonella [1] worked out at 10 days. Besides, the mortality at 5000 µg/mL in the experiment with Cydia pomonella [2] amounted to 33.4%.

Regarding `O=C(Nc1ccc(Oc2ccccc2)cc1)c1cnccn1`, the Time with Cydia pomonella [1] was 9.7 days. Moreover, the mortality at 5000 µg/mL with Cydia pomonella [2] amounted to 29.2%.

In the case of `CC(=O)Nc1ccc(Oc2ccc(NC(=O)c3ccccn3)cc2)cc1`, the Time in the experiment with Cydia pomonella [1] worked out at 10.9 days. Further, the mortality at 5000 µg/mL in the experiment with Cydia pomonella [2] is 67.3%. The Efficacy in the experiment on Cydia pomonella [3] is 47.1%.

Take `CC(=O)Nc1ccc(Oc2ccc(NC(=O)c3cccnc3)cc2)cc1`: the Time in the experiment with Cydia pomonella [1] is 10.6 days. Moreover, the mortality at 5000 µg/mL in the experiment on Cydia pomonella [2] was 57.6%.

For the compound `CC(=O)Nc1ccc(Oc2ccc(NC(=O)c3ccncc3)cc2)cc1`, in the experiment on Cydia pomonella [1], the Time is 10.1 days. Further, the mortality at 5000 µg/mL in the experiment with Cydia pomonella [2] was determined as 52.7%.

Take `CC(=O)Nc1ccc(Oc2ccc(NC(=O)c3cnccn3)cc2)cc1`: the Time in the experiment on Cydia pomonella [1] came to 11 days. The mortality at 5000 µg/mL in the experiment on Cydia pomonella [2] came to 68.4%. The Efficacy in the experiment on Cydia pomonella [3] amounted to 49.1%.

With `O=C(Nc1ccc(Oc2ccccc2)cc1)c1cccnc1`, the Time with Cydia pomonella [1] amounted to 10.6 days. Further, the mortality at 5000 µg/mL in the experiment with Cydia pomonella [2] worked out at 40.9%. In addition, the Efficacy in the experiment with Cydia pomonella [3] worked out at 26.3%.

`O=C(Nc1ccc(Oc2ccccc2)cc1)c1ccccn1`: the Time with Cydia pomonella [1] is 10.8 days. Further, the mortality at 5000 µg/mL with Cydia pomonella [2] was 52.4%. Further, in the experiment with Cydia pomonella [3], the Efficacy was found to be 40.7%.

As for `CCOC(=O)NCCOc1ccc(Oc2ccccc2)cc1` [PHENOXYCARB], the mortality at 5000 µg/mL in the experiment with Cydia pomonella [2] is 99.3%. In addition, in the experiment with Cydia pomonella [3], the Efficacy is 99.1%.

As a reminder, the mortality is the share of the test organisms that died.
